In patent US20240299433A1, “PHARMACEUTICAL COMPOSITION CONTAINING AUCUBIN FOR PREVENTING OR TREATING MACULAR DEGENERATION” (INDUSTRIAL COOPERATION FOUNDATION JEONBUK NATIONAL …, priority 2019, published 2024):

Columns and labels:
[1] = test system: N-methyl-N-nitrosourea (MNU)-induced photoreceptor cell degeneration mouse; test: Histopathology (H&E), outer nuclear layer thickness of retinal tissue; format: in vivo, C57BL/6 mice; details: aucubin 15 mg/kg/day orally for 7 days; MNU 60 mg/kg intraperitoneally
Method: (§1) Six-week-old male C57BL/6 mice were purchased from Orient (Seongnam, Korea) and used after acclimatization for 1 week. N-methyl-N-nitrosourea (MNU, Sigma, USA) was prepared to a concentration of 1% in 0.05% acetic acid solution to induce damage and degeneration of photoreceptor cells among the morphologic changes in retinal tissue seen in macular degeneration, and 7-week-old male C57BL/6 mice were administered 1% MNU solution intraperitoneally at 60 mg/kg per animal. In the normal group, only an equivalent amount of 0.05% acetic acid was administered intraperitoneally. […] The inventors measured the electroretinogram. […] After the pupils were dilated, an appropriate amount of 1% methylcellulose was applied to the eyes while maintaining body temperature, and a gold wire loop recording electrode was grounded to the cornea, a reference electrode was placed on the cheek area, and a ground electrode was grounded to the tail, and the ERG was measured using a Retiport (Roland consult, Germany). […]
After the end of study drug (aucubin) administration, necropsy was performed and the eyes were enucleated, fixed in 10% neutralized formalin for 1 day, and embedded in paraffin to prepare slide sections. […] Photoreceptor cell damage & deformation was assessed by measuring the change in thickness of the outer nuclear layer (ONL) of retinal tissue. […]

[2] = test system: N-methyl-N-nitrosourea (MNU)-induced photoreceptor cell degeneration mouse; test: TUNEL staining of retinal sections (anti-apoptotic effect); format: in vivo, C57BL/6 mice; details: aucubin 15 mg/kg/day orally for 7 days; versus MNU-treated group
Method: as §1, with “intraperitoneally. Aucubin was prepared by dissolving in sterile tertiary distilled water to a concentration of 15 mg/kg/day and administered orally once daily for 7 days starting on the same day as MNU administration.” for “intraperitoneally.”
Retinal sections were made 4 μm thick. […] In the MNU-treated group, a number of apoptotic cells were observed, but these were mainly detected in the outer nuclear layer.

[3] = test system: N-methyl-N-nitrosourea (MNU)-induced photoreceptor cell degeneration mouse; test: 8-OHdG immunohistochemical staining of retinal sections (antioxidant effect); format: in vivo, C57BL/6 mice; details: aucubin 15 mg/kg/day orally for 7 days; compared to the MNU-treated group
Method: as §1
The formation of 8-hydroxydeoxyguanosine (8-OHdG) induced by the oxidation of guanine is a well-known marker for oxidative DNA damage. […] The Invision kit (DAKO, Carpinteria, CA, USA) detected signals visualized with aminoethylcarbazole. […]

[4] = test system: primary cultured retinal cells; test: Oxidative stress (DCFH fluorescent probe) in primary cultured retinal cells; format: cell-based, C57BL/6 mice; details: aucubin in presence of MNU 100 μg/mL, 24 hours
[5] = test system: primary cultured retinal cells; test: Apoptosis (TUNEL staining) in primary cultured retinal cells; format: cell-based, C57BL/6 mice; details: aucubin in presence of MNU 100 μg/mL, 24 hours
Method: Cells were resuspended in the above medium without DNase. […] MNU treatment was cytotoxic in retinal cells. […] Apoptotic cells were measured by TUNEL staining.

[6] = test system: primary cultured retinal cells; test: Cell viability (MTS assay) of primary cultured retinal cells; details: 24 hours
Method: Retinas were isolated by eye enucleation from C57BL/6 mice (Orient Bio, Seoul, Korea) and dissociated with papain for 15 minutes at 37° C. Neuronal basal medium (Gibco) containing ovomucoid (Sigma Aldrich) and DNase (Sigma Aldrich) was added, and cells were centrifuged at 100×g for 8 min. Cells were resuspended in the above medium without DNase. Retinal cells were maintained in neurobasal medium with L-glutamine and B27 supplement (Gibco). Retinal cells were identified by immunostaining for rhodopsin (a marker for membrane photoreceptor cells) and glial fibrillary acidic protein (Muller glia). The cultured cells contained 65% rod photoreceptor cells and 28% Muller glia. Retinal cells were plated (1*10^4 cells/well) in 96-well plates for 24 hours, and the medium was exchanged with different concentrations of aucubin in the presence or absence of MNU (100 μg/mL) and cultured for 24 hours. Cell viability was then examined using a cell proliferation assay reagent (MTS assay kit, Promega Corporation, Madison, WI, USA).

[7] = test system: N-methyl-N-nitrosourea (MNU)-induced photoreceptor cell degeneration mouse; test: Electroretinogram (ERG) in MNU-induced photoreceptor cell degeneration mouse; format: in vivo, C57BL/6 mice; details: MNU 60 mg/kg intraperitoneally, mice
Method: Six-week-old male C57BL/6 mice were purchased from Orient (Seongnam, Korea) and used after acclimatization for 1 week. N-methyl-N-nitrosourea (MNU, Sigma, USA) was prepared to a concentration of 1% in 0.05% acetic acid solution to induce damage and degeneration of photoreceptor cells among the morphologic changes in retinal tissue seen in macular degeneration, and 7-week-old male C57BL/6 mice were administered 1% MNU solution intraperitoneally at 60 mg/kg per animal. In the normal group, only an equivalent amount of 0.05% acetic acid was administered intraperitoneally. Aucubin was prepared by dissolving in sterile tertiary distilled water to a concentration of 15 mg/kg/day and administered orally once daily for 7 days starting on the same day as MNU administration. An electroretinogram (ERG) is a record of the electrical signals generated by the […] in response to light and is used as an indicator of retinal damage or disease. The inventors measured the electroretinogram. […] After the pupils were dilated, an appropriate amount of 1% methylcellulose was applied to the eyes while maintaining body temperature, and a gold wire loop recording electrode was grounded to the cornea, a reference electrode was placed on the cheek area, and a ground electrode was grounded to the tail, and the ERG was measured using a Retiport (Roland consult, Germany). […]

SMILES | reduction of photoreceptor cell loss (ONL thickness) [1] | photoreceptor cell death (TUNEL-positive apoptotic cells) in retina [2] | 8-OHdG levels (oxidative DNA damage) in retina [3] | oxidative stress (DCFH dye) [4] | apoptotic cells (TUNEL staining) [5] | cell viability in presence of MNU ([6]; various concentrations of aucubin, MNU 100 μg/mL) | reduction of a-wave amplitude [7] | reduction of b-wave amplitude [7] | cell viability compared to control cells ([6]; 100 μg/ml MNU alone)
OCC1=C[C@@H](O)[C@@H]2C=CO[C@@H](O[C@@H]3O[C@H](CO)[C@@H](O)[C@H](O)[C@H]3O)[C@H]12 [aucubin] | 9.8%+2.9% | significantly prevented this cell death | significantly reduced | significantly decreased | significantly decreased | cell viability was restored in a dose-dependent manner |  |  | 
CN(N=O)C(N)=O [MNU, N-methyl-N-nitrosourea] |  |  |  |  |  |  | 78% | 63% | approximately 70%
